Measured values reported in US20070049593A1 (priority 2004, published 2007).
Where a name gives a salt, the structure may show the parent alone.

Molecular target: T1, HCV polymerase (Hepatitis C virus genotype 1b, UniProt P26663)
T1 construct: a region encoding NS5B (J Virol 1991 March, 65(3), 1105-13, 544 amino acids after deletion of 47 amino acids on the C-terminal); 6xHis (C); made in house; host or cells: Escherichia coli
Assay: biochemical
Set-up: species or system HCV BK strain
How it was run: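 His-tagged NS5B (BK strain, 47-aa C-terminal deletion, E. coli-expressed) at 0.5 μg/ml copied 5 μg/ml run-off RNA bearing the HCV 3′ UTR with 2 μM UTP plus [3H]UTP, 50 μM ATP/GTP, in pH 7.5 Tris with 5 mM MgCl2, 25 °C, 90 min. TCA-precipitated RNA was counted and IC50 calculated.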

T1 sequence (P26663 2420-2963): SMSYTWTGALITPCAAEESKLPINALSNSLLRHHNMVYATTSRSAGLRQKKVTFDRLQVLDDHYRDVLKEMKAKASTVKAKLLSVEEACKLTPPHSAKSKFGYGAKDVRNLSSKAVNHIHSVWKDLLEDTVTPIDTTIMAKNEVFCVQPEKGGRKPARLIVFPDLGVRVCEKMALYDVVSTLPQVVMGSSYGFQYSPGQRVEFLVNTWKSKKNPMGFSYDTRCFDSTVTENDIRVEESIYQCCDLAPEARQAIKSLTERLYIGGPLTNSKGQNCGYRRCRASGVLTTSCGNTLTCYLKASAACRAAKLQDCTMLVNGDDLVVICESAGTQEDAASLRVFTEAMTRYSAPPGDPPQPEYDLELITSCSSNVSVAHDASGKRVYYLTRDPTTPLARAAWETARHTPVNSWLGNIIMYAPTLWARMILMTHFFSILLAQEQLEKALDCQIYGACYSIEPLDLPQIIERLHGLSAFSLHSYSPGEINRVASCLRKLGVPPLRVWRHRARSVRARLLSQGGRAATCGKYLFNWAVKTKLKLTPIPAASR

| SMILES | IC50 |
| --- | --- |
| CN(c1ccc(N2CCOCC2)c(COc2ccc3c(c2)OCCn2c-3c(C3CCCCC3)c3ccc(C(=O)O)cc32)c1)S(C)(=O)=O [Example 2-19, 12-cyclohexyl-3-[5-(N-methanesulfonyl-N-methylamino)-2-(morpholin-4-yl)benzyloxy]-6,7-dihydro-5-oxa-7a-azadibenzo[a,e]azulene-9-carboxylic acid monohydrochloride] | < 100 nM |
| O=C(O)c1ccc2c(C3CCCCC3)c3n(c2c1)CCOc1cc(Oc2ccccc2)ccc1-3 [Example 2-20, 12-cyclohexyl-3-phenoxy-6,7-dihydro-5-oxa-7a-azadibenzo[a,e]azulene-9-carboxylic acid] | < 100 nM |
| O=C(CN1CCOCC1)Nc1ccc(N2CCOCC2)c(COc2ccc3c(c2)OCCn2c-3c(C3CCCCC3)c3ccc(C(=O)O)cc32)c1 [Example 2-21, 12-cyclohexyl-3-{2-(morpholin-4-yl)-5-[2-(morpholin-4-yl)acetylamino]benzyloxy}-6,7-dihydro-5-oxa-7a-azadibenzo[a,e]azulene-9-carboxylic acid dihydrochloride] | < 100 nM |
| CN(C(=O)CN1CCOCC1)c1ccc(N2CCOCC2)c(COc2ccc3c(c2)OCCn2c-3c(C3CCCCC3)c3ccc(C(=O)O)cc32)c1 [Example 2-22, 12-cyclohexyl-3-[5-{N-methyl-N-[2-(morpholin-4-yl)acetyl]amino}-2-(morpholin-4-yl)benzyloxy]-6,7-dihydro-5-oxa-7a-azadibenzo[a,e]azulene-9-carboxylic acid dihydrochloride] | < 100 nM |
| CN(C)CC(=O)N(C)c1ccc(N2CCOCC2)c(COc2ccc3c(c2)OCCn2c-3c(C3CCCCC3)c3ccc(C(=O)O)cc32)c1 [Example 2-23, 12-cyclohexyl-3-(5-[N-(2-dimethylaminoacetyl)-N-methylamino]-2-(morpholin-4-yl)benzyloxy]-6,7-dihydro-5-oxa-7a-azadibenzo[a,e]azulene-9-carboxylic acid dihydrochloride] | < 100 nM |
| COC(=O)N1CCCC(Oc2ccc3c(c2)OCCn2c-3c(C3CCCCC3)c3ccc(C(=O)O)cc32)C1 (centres unmarked) [Example 2-24, 12-cyclohexyl-3-(1-methoxycarbonylpiperidin-3-yloxy)-6,7-dihydro-5-oxa-7a-azadibenzo[a,e]azulene-9-carboxylic acid] | < 100 nM |
| COc1ccc(Oc2ccc3c(c2)OCCn2c-3c(C3CCCCC3)c3ccc(C(=O)O)cc32)cc1 [Example 2-25, 12-cyclohexyl-3-(4-methoxyphenoxy)-6,7-dihydro-5-oxa-7a-azadibenzo[a,e]azulene-9-carboxylic acid] | < 100 nM |
| O=C(O)c1ccc2c(C3CCCCC3)c3n(c2c1)CCOc1cc(Oc2cccc(Cl)c2)ccc1-3 [Example 2-26, 3-(3-chlorophenoxy)-12-cyclohexyl-6,7-dihydro-5-oxa-7a-azadibenzo[a,e]azulene-9-carboxylic acid] | < 100 nM |
| CN(C)C(=O)CN1CCN(c2ccc(N3CCCC3=O)cc2COc2ccc3c(c2)OCCn2c-3c(C3CCCCC3)c3ccc(C(=O)O)cc32)CC1 [Example 2-27, 12-cyclohexyl-3-[2-(4-dimethylcarbamoylmethylpiperazin-1-yl)-5-(2-oxopyrrolidin-1-yl)benzyloxy]-6,7-dihydro-5-oxa-7a-azadibenzo[a,e]azulene-9-carboxylic acid dihydrochloride] | < 100 nM |
| CCN1CCN(c2ccc(N3CCCC3=O)cc2COc2ccc3c(c2)OCCn2c-3c(C3CCCCC3)c3ccc(C(=O)O)cc32)CC1 [Example 2-28, 12-cyclohexyl-3-[2-(4-ethylpiperazin-1-yl)-5-(2-oxopyrrolidin-1-yl)benzyloxy]-6,7-dihydro-5-oxa-7a-azadibenzo[a,e]azulene-9-carboxylic acid dihydrochloride] | < 100 nM |
| O=C(O)c1ccc2c(C3CCCCC3)c3n(c2c1)CCOc1cc(Oc2cccnc2)ccc1-3 [Example 2-29, 12-cyclohexyl-3-(pyridin-3-yloxy)-6,7-dihydro-5-oxa-7a-azadibenzo[a,e]azulene-9-carboxylic acid monohydrochloride] | < 100 nM |
| O=C(O)c1ccc2c(C3CCCCC3)c3n(c2c1)CCOc1cc(Oc2ccccc2Cl)ccc1-3 [Example 2-30, 3-(2-chlorophenoxy)-12-cyclohexyl-6,7-dihydro-5-oxa-7a-azadibenzo[a,e]azulene-9-carboxylic acid] | < 100 nM |
| O=C(O)c1ccc2c(C3CCCCC3)c3n(c2c1)CCOc1cc(Oc2ccc(Cl)cc2)ccc1-3 [Example 2-31, 3-(4-chlorophenoxy)-12-cyclohexyl-6,7-dihydro-5-oxa-7a-azadibenzo[a,e]azulene-9-carboxylic acid] | < 100 nM |
| Cc1cc(COc2ccc3c(c2)OCCn2c-3c(C3CCCCC3)c3ccc(C(=O)O)cc32)no1 [Example 2-32, 12-cyclohexyl-3-(5-methylisoxazol-3-ylmethoxy)-6,7-dihydro-5-oxa-7a-azadibenzo[a,e]azulene-9-carboxylic acid] | < 100 nM |
| CC(C)(C)OC(=O)NCCOc1ccc2c(c1)OCCn1c-2c(C2CCCCC2)c2ccc(C(=O)O)cc21 [Example 2-33, 3-[2-(tert-butoxycarbonylamino)ethoxy]-12-cyclohexyl-6,7-dihydro-5-oxa-7a-azadibenzo[a,e]azulene-9-carboxylic acid] | < 100 nM |
| Cc1nc(COc2ccc3c(c2)OCCn2c-3c(C3CCCCC3)c3ccc(C(=O)O)cc32)cs1 [Example 2-34, 12-cyclohexyl-3-(2-methylthiazol-4-ylmethoxy)-6,7-dihydro-5-oxa-7a-azadibenzo[a,e]azulene-9-carboxylic acid] | < 100 nM |
| CC(C)(C)OC(=O)N1CCC[C@H]1COc1ccc2c(c1)OCCn1c-2c(C2CCCCC2)c2ccc(C(=O)O)cc21 [Example 2-35, 3-[(S)-1-(tert-butoxycarbonyl)pyrrolidin-2-ylmethoxy]-12-cyclohexyl-6,7-dihydro-5-oxa-7a-azadibenzo[a,e]azulene-9-carboxylic acid] | < 100 nM |
| COC(=O)NCCOc1ccc2c(c1)OCCn1c-2c(C2CCCCC2)c2ccc(C(=O)O)cc21 [Example 2-36, 12-cyclohexyl-3-[2-(methoxycarbonylamino)ethoxy]-6,7-dihydro-5-oxa-7a-azadibenzo[a,e]azulene-9-carboxylic acid] | < 100 nM |
| COC(=O)N1CCC[C@H]1COc1ccc2c(c1)OCCn1c-2c(C2CCCCC2)c2ccc(C(=O)O)cc21 [Example 2-37, 12-cyclohexyl-3-((S)-1-methoxycarbonylpyrrolidin-2-ylmethoxy)-6,7-dihydro-5-oxa-7a-azadibenzo[a,e]azulene-9-carboxylic acid] | < 100 nM |
| O=C(O)c1ccc2c(C3CCCCC3)c3n(c2c1)CCOc1cc(OCCN2CCOC2=O)ccc1-3 [Example 2-38, 12-cyclohexyl-3-[2-(2-oxooxazolidin-3-yl)ethoxy]-6,7-dihydro-5-oxa-7a-azadibenzo[a,e]azulene-9-carboxylic acid] | < 100 nM |
| O=C(O)c1ccc2c(C3CCCCC3)c3n(c2c1)CCOc1c(OCc2ccccc2)cccc1-3 [Example 2-39, 4-benzyloxy-12-cyclohexyl-6,7-dihydro-5-oxa-7a-azadibenzo[a,e]azulene-9-carboxylic acid] | < 100 nM |
| CC(C)(C)OC(=O)N1CC[C@H](Oc2ccc3c(c2)OCCn2c-3c(C3CCCCC3)c3ccc(C(=O)O)cc32)C1 [Example 2-40, 3-[(S)-1-(tert-butoxycarbonyl)pyrrolidin-3-yloxy]-12-cyclohexyl-6,7-dihydro-5-oxa-7a-azadibenzo[a,e]azulene-9-carboxylic acid] | < 100 nM |
| CC(C)(C)OC(=O)N[C@H](COc1ccc2c(c1)OCCn1c-2c(C2CCCCC2)c2ccc(C(=O)O)cc21)Cc1ccccc1 [Example 2-41, 3-((S)-2-tert-butoxycarbonylamino-3-phenylpropoxy)-12-cyclohexyl-6,7-dihydro-5-oxa-7a-azadibenzo[a,e]azulene-9-carboxylic acid] | < 100 nM |
| O=C(O)c1ccc2c(C3CCCCC3)c3n(c2c1)CCOc1cc(O[C@H]2CCNC2)ccc1-3 [Example 2-42, 12-cyclohexyl-3-((S)-pyrrolidin-3-yloxy)-6,7-dihydro-5-oxa-7a-azadibenzo[a,e]azulene-9-carboxylic acid monohydrochloride] | < 100 nM |
| CC(C)[C@@H](COc1ccc2c(c1)OCCn1c-2c(C2CCCCC2)c2ccc(C(=O)O)cc21)NC(=O)OC(C)(C)C [Example 2-43, 3-((S)-2-tert-butoxycarbonylamino-3-methylbutoxy)-12-cyclohexyl-6,7-dihydro-5-oxa-7a-azadibenzo[a,e]azulene-9-carboxylic acid] | < 100 nM |
| CS(=O)(=O)N1CCCC(Oc2ccc3c(c2)OCCn2c-3c(C3CCCCC3)c3ccc(C(=O)O)cc32)C1 (centres unmarked) [Example 2-44, 12-cyclohexyl-3-(1-methanesulfonylpiperidin-3-yloxy)-6,7-dihydro-5-oxa-7a-azadibenzo[a,e]azulene-9-carboxylic acid] | < 100 nM |
| CN1CCCCC1COc1ccc2c(c1)OCCn1c-2c(C2CCCCC2)c2ccc(C(=O)O)cc21 (centres unmarked) [Example 2-45, 12-cyclohexyl-3-(1-methylpiperidin-2-ylmethoxy)-6,7-dihydro-5-oxa-7a-azadibenzo[a,e]azulene-9-carboxylic acid] | < 100 nM |
| O=C(O)c1ccc2c(C3CCCCC3)c3n(c2c1)CCOc1cc(OC2CCCNC2)ccc1-3 (centres unmarked) [Example 2-46, 12-cyclohexyl-3-(piperidin-3-yloxy)-6,7-dihydro-5-oxa-7a-azadibenzo[a,e]azulene-9-carboxylic acid monohydrochloride] | < 100 nM |
| NC(=O)c1ccc2c(C3CCCCC3)c3n(c2c1)CCOc1cc(OCc2cc(N4CCCC4=O)ccc2N2CCOCC2)ccc1-3 [Example 2-47, 12-cyclohexyl-3-[2-(morpholin-4-yl)-5-(2-oxopyrrolidin-1-yl)benzyloxy]-6,7-dihydro-5-oxa-7a-azadibenzo[a,e]azulene-9-carboxamide monohydrochloride] | < 100 nM |
